In patent US20250051762A1, “PLATFORM USING DNA-ENCODED SMALL MOLECULE LIBRARIES AND RNA SELECTION TO DESIGN SMALL MOLECULES THAT TARGET RNA” (University of Florida Research Foundation, Incorporated, priority 2021, published 2025):

Assays:
Assay type in all cases: cell-based, human
[1] = system: miR-23a; experiment: RT-qPCR of mature miR-23a in MDA-MB-231 cells
Method: (§1) Cell lines. Compounds were tested in MDA-MB-231 TNBC cells (HTB-26, ATCC), LNCaP metastatic prostate cancer cells (gifted from Junli Luo lab), MCF-7 (HTB-22, ATCC) breast cancer cells, HeLa cervical adenocarcinoma cells (CCL-2, ATCC), and MCF-10a, a model of healthy breast epithelial cells (CRL-10317, ATCC).
(§2) Cell culture and compound treatment. All cells were maintained at 37° C. with 5% CO2. MDA-MB-231 and LNCaP cells were cultured in RPMI 1640 medium with L-glutamine & 25 mM HEPES (Corning) supplemented with 10% (v/v) fetal bovine serum (FBS; Sigma) and 1× (v/v) Antibiotic-Antimycotic solution (Corning). MCF-7 and HeLa cells were cultured in DMEM medium with 4.5 g/L glucose (Corning), supplemented with 10% FBS, 1× (v/v) Glutagro (Corning), and 1× (v/v) Antibiotic-Antimycotic solution. […]
(§3) Analysis of mRNA abundance: Each cell line was grown as a monolayer in 12- or 24-well plates and treated as described in “Cell culture and compound treatment”. […] Relative abundance of mature miRNAs was calculated by normalizing to RNU6, and relative abundance for pri-miRNAs and mRNAs was calculated by normalizing to 18S ribosomal RNA, using the AAC, method. […]

[2] = system: pri-miR-27a; experiment: RT-qPCR of pri- and mature miR-27a in HeLa cells
Method: as §1, §2, §3

[3] = system: PP4C; experiment: Western blot of PP4C in MDA-MB-231 cells; conditions: relative to β-actin, 48 h
Method: Western Blotting: MDA-MB-231 cells were grown in 6-well plates to ˜80% confluency in complete growth medium and then incubated with 9 at the indicated concentrations for 48 h. Total protein was extracted using M-PER Mammalian Protein Extraction Reagent (Pierce Biotechnology) using the manufacturer's protocol and quantified using a Micro BCA Protein Assay Kit (Pierce Biotechnology). Approximately 50 μg of total protein was separated on a 10% SDS-polyacrylamide gel, and then transferred to a PVDF membrane. The membrane was washed with 1× Tris-buffered saline (TBS) and then blocked in 1×TBST (1×TBS containing 0.1% (v/v) Tween-20) containing 5% (w/v) milk for 1 h at room temperature. […] The membrane was again washed with 1×TBST, and protein expression was quantified using SuperSignal West Pico Chemiluminescent Substrate (Pierce Biotechnology) per the manufacturer's protocol.
To quantify b-actin expression, used for normalization, the membrane was stripped using 1× Stripping Buffer (200 mM glycine, pH 2.2 and 0.1% SDS) followed by washing in 1×TBST. […] The fold change of the target protein expression (PP4C or PDCD4) was calculated by normalizing its band intensity to b-actin band intensity using ImageJ.

SMILES: C#CCN(CC(N)=O)C(=O)C[C@H](Cc1c[nH]c2ccccc12)NC(=O)[C@@H]1C[C@H](NC(=O)Cn2c(=O)[nH]c3ccccc3c2=O)CN1 [Compound 9]
- effect on levels of mature miR-23a [1]: no effect
- dose with significant inhibition of miR-27a processing [2]: 100 nM
- PP4C expression [3]: upregulation
